Patent publication US20080255244A1, “CaM Kinase II Inhibitor Improves Retinoic Acid Therapy and Inhibits the Proliferation of Myeloid Leukemia Cells” (Fred Hutchinson Cancer Research Center, priority 2007, published 2008)

Assays:
Type in all cases: cell-based, human
[1] = system: C/EBPε expression in HL60; experiment: Western blot of C/EBPε expression in HL60 cells; conditions: ATRA 1 uM
Procedure: (§1) FIG. 6. Retinoic acid induces changes in the association of CaMKIIγ with the C/EBPε promoter RARE. […] (B) The human C/EBPε 5′ region indicating the location of the ChIP PCR primers. (C) ChIP assays. HL60 cell chromatin from cells treated with ATRA (1 uM) for the indicated time was immunoprecipitated with the indicated antibodies, the DNA isolated and subjected to PCR utilizing the indicated C/EBPε promoter primer pairs.
Protein extracts, Western blotting and co-immunoprecipitations. Westerns and co-immunoprecipitations were performed as previously detailed (Si, J., and Collins, S. J., Blood 100:4401-4409 (2002)).

[2] = system: C/EBPε RARE; experiment: ChIP at the C/EBPε promoter RARE in HL60 cells; conditions: ATRA 1 uM
Procedure: as §1
ChIP. HL60 cells incubated for various periods of time after ATRA (1 μM) treatment were harvested and crosslinked using 1% formaldehyde for 15 minutes at 37° and incubated another 15 minutes at room temperature with 125 mM glycine. Cells then were rinsed and washed three times with cold PBS. The cell pellets were resuspended in 0.2-2 ml of SDS lysis buffer (1% SDS, 10 mM EDTA, […] Tris-HCL, pH 8.1) with protease inhibitors(1 μg/ml leupeptin, […] aprotinin, 1 mM PMSF, 1 μg/ml pepstatin A, 10 μM antipain, 10 μM bestatin, 1 mM NaF, and 1× phosphatase inhibitor cocktail I/II) and sonicated three times at 20 s each to reduce DNA length to 200-800 bp. Supernatants were collected by centrifugation for 10 minutes at 13,200 rpm at 4° and diluted in 10 fold dilution buffer (0.01% SDS, 1.1% Triton X-100, 1.2 mm EDTA, 16.7 mM Tris-HCl, pH 8.1, 167 mM NaCl) with the above protease inhibitors. […]

[3] = system: activated CaMKIIγ in THP1 cells; experiment: Western blot of CaMKIIγ autophosphorylation in THP1 cells; conditions: five days ATRA
Procedure: FIG. 9. Terminal differentiation/apoptosis of myeloid leukemia cells is associated with decreased CaMKIIγ activation. (A) Lysates from the HL60, NB4 and U937 myeloid cell lines treated with ATRA (1 μM) for the indicated period of time were subjected to Western blots. (B) Lysates from the indicated myeloid cell lines treated for five days with the indicated concentration of ATRA were subjected to Western blots. (C) Lysates from HL60 cells treated with TPA (0.1 μM) for the indicated time were subjected to Western blots. (D) Lysates from NB4 cells treated with arsenic trioxide (1 uM) for the indicated time were subjected to Western blots.
Antibodies and Western blots. Protein extracts, immunoprecipitations and Western blots were performed as previously detailed (Si J, Collins S J. IL-3-induced enhancement of retinoic acid receptor activity is mediated through Stat5, which physically associates with retinoic acid receptors in an IL-3-dependent manner. Blood 100: 4401-9 (2002)). Antibodies against CaMKI, CaMKIIγ, CaMKIV, c-myc, Stat3, Stat5, calmodulin, as well as the phosphospecific CaMKII (T286, 287) and phosphospecific CaMKI (T177) antibodies were from Santa Cruz Biotechnology. […]

[4] = system: KCL22 cells; experiment: KCL22 proliferation in liquid suspension culture
Procedure: FIG. 11. […] (A) K562 cells were seeded in liquid suspension culture at 5×10^4 cells/ml in the presence or absence of the indicated concentration of compounds, and cell counts were obtained at the indicated time. (B) The indicated myeloid leukemia cell lines were seeded in liquid suspension culture at 5×10^4 cells/ml in the presence or absence of KN93, and cell counts obtained at the indicated time. (C) K562 cells were electroporated with the LXSN expression vector harboring the kinase dead, Lys^43 mutated, truncated CaMKII construct (kdCaMKII) as well as with the control (empty) LXSN vector. The electroporated cells were diluted into 96 well plates in liquid suspension culture in the presence of G418 (1 mg/ml). Following eight days of culture the total number of discrete, actively proliferating G418 resistant colonies within individual wells was determined.
Cell lines. All leukemia cell lines are cultured at 37° in RPMI supplemented with 5% heat-inactivated fetal calf serum.

[5] = system: K562 cells; experiment: K562 proliferation in liquid suspension culture (cell counts)

SMILES: CC1=C(/C=C/C(C)=C/C=C/C(C)=C/C(=O)O)C(C)(C)CCC1 [ATRA, All-trans retinoic acid]
- C/EBPε expression [1]: enhanced
- association of corepressors N-CoR and SMRT with the C/EBPε RARE [2]: rapid displacement
- association of CaMKIIγ with the C/EBPε RARE ([2]; observed as early as 1-2 hours): dissociation
- activated CaMKIIγ level [3]: did not exhibit any decrease

SMILES: COc1ccc(S(=O)(=O)N(CCO)c2ccccc2CN(C)C/C=C/c2ccc(Cl)cc2)cc1 [KN-93]
- cell proliferation [4]: inhibition
- cell viability or morphologic differentiation [4]: without any significant effect
- K562 viability [5]: did not affect
- K562 cell proliferation ([5]; seeded at 5×10^4 cells/ml, cell counts): inhibited the proliferation of K562 cells in a dose dependent manner
